Tests used:
[1] = tested on: retina; assay: Retinal thickness (edema) after laser photocoagulation in rats; format: in vivo, Long-Evans rats; settings: 0.5 mmol/kg/day intraperitoneally; for retinal thickness, greater than that in normal retina: saline control 50%; for retinal thickness (edema) compared with control (saline injected), in words: day 1 post photocoagulation
[2] = tested on: ED-1 immunoreactive (macrophage) cells in retina; assay: ED-1 (macrophage) immunostaining of retina after photocoagulation in rats; format: in vivo; settings: vs saline injected; for number of ED-1 positive retina cells relative to controls (in words): 24 hours after laser treatment; for number of ED-1 positive cells, times less than control: Day 1 post photocoagulation, average of four 40× objective fields
[3] = tested on: retina; assay: Retinal thickness (edema) after PDT (verteporfin) in rabbits; format: in vivo, Pigmented rabbits; settings: for retinal thickness, greater than that in normal retina: 24 hours after PDT, 0.2 mmol/kg/day intramuscularly, saline control 140%; for retinal thickness (edema) compared with control (saline injected), in words: day 1 post PDT, TRIEN or TETREN (0.2 mM/day)

SMILES | retinal thickness, greater than that in the control animals (saline injected) ([1]; 24 hours post photocoagulation) [%] | retinal thickness, greater than that in normal retina ([1]; 24 hours post photocoagulation) [%] | retinal thickness (edema) compared with control (saline injected), in words [1] | retinal thickness (edema) compared with control (saline injected), in words ([1]; listed as DPA) | number of ED-1 positive retina cells relative to controls (in words) [2] | number of ED-1 positive cells, times less than control [2] | retinal thickness, greater than that in normal retina [3] [%] | retinal thickness (edema) compared with control (saline injected), in words [3]
CC(C)(S)[C@@H](N)C(=O)O [D-PA, D-penicillamine] | 35 | 85 | greater than that in control eyes | showed the opposite effect | – | – | – | –
NCCNCCNCCN [TRIEN, triethylenetetramine] | – | 23 | retinal thickness of eyes from control animals (saline injected) is greater | – | approximately half that of the controls | two times less | 50 | significantly less than that in control
NCCNCCNCCNCCN [TETREN, tetraethylenepentamine] | – | 26 | retinal thickness of eyes from control animals (saline injected) is greater | – | more than half that of control animals | 2.5 times | 45 | significantly less than that in control
